Results taken from patent US20050009776A1, “Method of treating atrial fibrillation or atrial flutter” (Aderis Pharmaceuticals, Inc., priority 2003, published 2005).

Assay: Example 2: safety (adverse events, blood pressure, clinical laboratory values)
Format: in vivo, human
Conditions: for Diastolic BP Change from Baseline Post-treatment / Diastolic BP Change from Baseline Treatment / Systolic BP Change from Baseline Post-treatment / Systolic BP Change from Baseline Treatment: mean ± SD
Protocol: Each patient received 1 of 6 doses of DTI-0009 (0.25, 1.0, 2.5, 4.0, 10.0, or 25.0 μg/kg) diluted in normal saline or normal saline only (control). Study drug was administered as a 30-minute i.v. infusion at a rate of 1 mL/minute. Patients were enrolled in sequential dose groups, beginning with the lowest active dose group and continuing in increasing dose order; the final group received normal saline. The decision to proceed to the next highest dose group was based on the safety response in the previous dose group.
Electrophysiologic (EP), electrocardiogram (ECG), blood pressure measurements, and blood collection for clinical laboratory measurements were performed at baseline (−10 to 0 minutes), during treatment (between 20 and 30 minutes), and at 10 minutes post-treatment.
ECG measurements included PR interval, QRS complex duration, and QT interval. Efficacy was based on changes in EP and ECG parameters from baseline to the treatment period and to post treatment. Safety was based on the incidence of adverse events, blood pressure measurements, and clinical laboratory values.
The incidence of adverse events, blood pressure measurements, and clinical laboratory results were summarized by dose group. Adverse events were coded using the medical dictionary for regulatory activities (MedDRA version 3.0). Safety analyses included all patients who received any duration of study drug infusion.

Structure (SMILES): CCNC(=O)[C@H]1O[C@@H](n2cnc3c(NC4CCCC4)ncnc32)[C@H](O)[C@@H]1O [DTI-0009, N^6-cyclopentyl-5′-(N-ethyl)carboxamidoadenosine]
- Incidence of Adverse Events: General Disorders (2.5 μg/kg (n = 8)): 2 (25%)
- Incidence of Adverse Events: Groin pain/swelling (2.5 μg/kg (n = 8)): 0
- Diastolic BP Change from Baseline Post-treatment (2.5 μg/kg): −1.6 ± 9.5 mmHg
- Diastolic BP Change from Baseline Treatment (2.5 μg/kg): 0.0 ± 8.4 mmHg
- Systolic BP Change from Baseline Post-treatment (2.5 μg/kg): 0.6 ± 9.0 mmHg
- Systolic BP Change from Baseline Treatment (2.5 μg/kg): 1.0 ± 6.2 mmHg
- Adverse Events Related to Study Drug: Cardiac Disorders (all) (4.0 μg/kg (n = 10)): 2 (20%)
- Adverse Events Related to Study Drug: General Disorders (all) (4.0 μg/kg (n = 10)): 0
- Incidence of Adverse Events Related to Study Drug (4.0 μg/kg (n = 10)): 2 (20%)
- Incidence of Adverse Events: Any Adverse Event (4.0 μg/kg (n = 10)): 2 (20%)
- Incidence of Adverse Events: Atrial fibrillation (4.0 μg/kg (n = 10)): 2 (20%)
- Incidence of Adverse Events: Atrial flutter (4.0 μg/kg (n = 10)): 0
- Incidence of Adverse Events: Atrial tachycardia (4.0 μg/kg (n = 10)): 0
- Incidence of Adverse Events: Bradycardia (4.0 μg/kg (n = 10)): 0
- Incidence of Adverse Events: Cardiac Disorders (4.0 μg/kg (n = 10)): 2 (20%)
- Incidence of Adverse Events: Chest pain/tightness (4.0 μg/kg (n = 10)): 0
- Incidence of Adverse Events: Conduction disorders (4.0 μg/kg (n = 10)): 0
- Incidence of Adverse Events: General Disorders (4.0 μg/kg (n = 10)): 0
- Incidence of Adverse Events: Groin pain/swelling (4.0 μg/kg (n = 10)): 0
- Diastolic BP Change from Baseline Post-treatment (4.0 μg/kg): 0.6 ± 10.5 mmHg
- Diastolic BP Change from Baseline Treatment (4.0 μg/kg): 3.3 ± 8.4 mmHg
- Systolic BP Change from Baseline Post-treatment (4.0 μg/kg): 5.2 ± 10.2 mmHg
- Systolic BP Change from Baseline Treatment (4.0 μg/kg): 3.8 ± 8.4 mmHg
- Adverse Events Related to Study Drug: Cardiac Disorders (all) (10.0 μg/kg (n = 12)): 6 (50%)
- Adverse Events Related to Study Drug: General Disorders (all) (10.0 μg/kg (n = 12)): 1 (8%)
- Incidence of Adverse Events Related to Study Drug (10.0 μg/kg (n = 12)): 7 (58%)
- Incidence of Adverse Events: Any Adverse Event (10.0 μg/kg (n = 12)): 8 (67%)
- Incidence of Adverse Events: Atrial fibrillation (10.0 μg/kg (n = 12)): 3 (25%)
- Incidence of Adverse Events: Atrial flutter (10.0 μg/kg (n = 12)): 1 (8%)
- Incidence of Adverse Events: Atrial tachycardia (10.0 μg/kg (n = 12)): 0
- Incidence of Adverse Events: Bradycardia (10.0 μg/kg (n = 12)): 1 (8%)
- Incidence of Adverse Events: Cardiac Disorders (10.0 μg/kg (n = 12)): 6 (50%)
- Incidence of Adverse Events: Chest pain/tightness (10.0 μg/kg (n = 12)): 1 (8%)
- Incidence of Adverse Events: Conduction disorders (10.0 μg/kg (n = 12)): 1 (8%)
- Incidence of Adverse Events: General Disorders (10.0 μg/kg (n = 12)): 2 (17%)
- Incidence of Adverse Events: Groin pain/swelling (10.0 μg/kg (n = 12)): 0
- patients with severe adverse events (10.0 μg/kg group): 1 patient
- Diastolic BP Change from Baseline Post-treatment (10.0 μg/kg): −7.2 ± 16.8 mmHg
- Diastolic BP Change from Baseline Treatment (10.0 μg/kg): −3.2 ± 11.2 mmHg
- Systolic BP Change from Baseline Post-treatment (10.0 μg/kg): −12.6 ± 20.4 mmHg
- Systolic BP Change from Baseline Treatment (10.0 μg/kg): −3.2 ± 13.5 mmHg
- Adverse Events Related to Study Drug: Cardiac Disorders (all) (25.0 μg/kg (n = 3)): 2 (66.7%)
- Adverse Events Related to Study Drug: General Disorders (all) (25.0 μg/kg (n = 3)): 3 (100%)
- Incidence of Adverse Events Related to Study Drug (25.0 μg/kg (n = 3)): 3 (100%)
- Incidence of Adverse Events: Any Adverse Event (25.0 μg/kg (n = 3)): 3 (100%)
- Incidence of Adverse Events: Atrial fibrillation (25.0 μg/kg (n = 3)): 1 (33%)
- Incidence of Adverse Events: Atrial flutter (25.0 μg/kg (n = 3)): 0
- Incidence of Adverse Events: Atrial tachycardia (25.0 μg/kg (n = 3)): 1 (33%)
- Incidence of Adverse Events: Bradycardia (25.0 μg/kg (n = 3)): 1 (33%)
- Incidence of Adverse Events: Cardiac Disorders (25.0 μg/kg (n = 3)): 2 (66.7%)
- Incidence of Adverse Events: Chest pain/tightness (25.0 μg/kg (n = 3)): 3 (100%)
- Incidence of Adverse Events: Conduction disorders (25.0 μg/kg (n = 3)): 0
- Incidence of Adverse Events: General Disorders (25.0 μg/kg (n = 3)): 3 (100%)
- Incidence of Adverse Events: Groin pain/swelling (25.0 μg/kg (n = 3)): 0
- patients with severe adverse events (25.0 μg/kg group): 2 patients
- patients who did not complete study drug infusion due to adverse events (25.0 μg/kg group, chest pain, severe chest pain, chest tightness and atrial fibrillation): Three patients
- Diastolic BP Change from Baseline Post-treatment (25.0 μg/kg): 1.0 ± 8.0 mmHg
- Diastolic BP Change from Baseline Treatment (25.0 μg/kg): 7.5 ± 2.1 mmHg
- Systolic BP Change from Baseline Post-treatment (25.0 μg/kg): 6.7 ± 8.1 mmHg
- Systolic BP Change from Baseline Treatment (25.0 μg/kg): 23.0 ± 2.8 mmHg
- changes in blood pressure or clinical laboratory values (any patient during the study): no clinically significant changes
